Measured values published in article PMC7026418, “The kinase polypharmacology landscape of clinical PARP inhibitors” (Scientific Reports, 2020).
Read-outs that look alike come from different tables or passages of the source. One block for each compound: values may come before it.

Key:
Assay in all cases: biochemical
Design in all cases: DiscoveRx KINOMEscan active site-directed competition binding; percent of control kinase bound to immobilised ligand
AURKB = AURKB (Homo sapiens, UniProt Q96GD4)
Chain of AURKB (Q96GD4 whole entry): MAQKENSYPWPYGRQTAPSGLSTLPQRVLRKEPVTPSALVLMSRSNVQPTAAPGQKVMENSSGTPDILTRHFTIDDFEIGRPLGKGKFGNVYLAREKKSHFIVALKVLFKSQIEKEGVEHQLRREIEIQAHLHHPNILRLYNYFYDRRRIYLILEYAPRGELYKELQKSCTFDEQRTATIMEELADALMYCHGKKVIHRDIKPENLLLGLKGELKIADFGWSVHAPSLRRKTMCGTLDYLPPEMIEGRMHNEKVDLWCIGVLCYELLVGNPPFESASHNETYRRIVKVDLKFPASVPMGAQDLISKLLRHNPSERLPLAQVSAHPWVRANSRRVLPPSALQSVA

BIKE = target: T1, BIKE (Homo sapiens, UniProt Q9NSY1)
T1 construct: gene BMP2K
T1 sequence (Q9NSY1 whole entry): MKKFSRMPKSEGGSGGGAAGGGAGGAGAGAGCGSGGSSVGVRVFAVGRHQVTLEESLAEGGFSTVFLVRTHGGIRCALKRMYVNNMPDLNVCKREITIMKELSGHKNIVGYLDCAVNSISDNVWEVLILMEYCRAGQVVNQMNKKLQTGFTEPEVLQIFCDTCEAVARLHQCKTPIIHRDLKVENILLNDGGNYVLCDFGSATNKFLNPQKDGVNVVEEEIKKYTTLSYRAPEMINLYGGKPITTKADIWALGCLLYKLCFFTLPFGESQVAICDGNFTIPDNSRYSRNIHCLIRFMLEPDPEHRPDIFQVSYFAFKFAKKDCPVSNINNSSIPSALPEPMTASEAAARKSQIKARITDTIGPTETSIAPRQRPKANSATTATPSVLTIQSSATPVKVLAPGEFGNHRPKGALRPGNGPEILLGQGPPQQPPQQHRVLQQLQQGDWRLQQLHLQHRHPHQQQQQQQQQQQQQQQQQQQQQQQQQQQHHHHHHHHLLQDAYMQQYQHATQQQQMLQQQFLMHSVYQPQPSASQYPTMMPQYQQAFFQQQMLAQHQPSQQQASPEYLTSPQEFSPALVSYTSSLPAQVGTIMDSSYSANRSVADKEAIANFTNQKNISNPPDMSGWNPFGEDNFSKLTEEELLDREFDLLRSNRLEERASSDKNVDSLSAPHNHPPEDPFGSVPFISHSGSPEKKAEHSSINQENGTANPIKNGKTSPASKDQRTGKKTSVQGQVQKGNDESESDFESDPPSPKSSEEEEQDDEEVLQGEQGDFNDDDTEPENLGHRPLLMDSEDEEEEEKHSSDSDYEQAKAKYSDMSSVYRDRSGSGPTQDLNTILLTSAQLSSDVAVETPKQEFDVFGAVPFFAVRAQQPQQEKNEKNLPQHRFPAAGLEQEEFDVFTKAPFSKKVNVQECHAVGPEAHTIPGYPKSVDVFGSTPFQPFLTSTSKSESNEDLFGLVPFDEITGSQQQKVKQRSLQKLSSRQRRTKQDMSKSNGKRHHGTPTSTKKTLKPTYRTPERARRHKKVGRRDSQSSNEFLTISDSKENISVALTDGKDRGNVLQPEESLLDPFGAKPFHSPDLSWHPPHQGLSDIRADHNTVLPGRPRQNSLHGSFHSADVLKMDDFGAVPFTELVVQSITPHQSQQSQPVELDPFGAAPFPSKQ

DCAMKL1 = target: T2, DCAMKL1 (Homo sapiens, UniProt O15075)
T2 construct: gene DCLK1
T2 sequence (O15075 1-740): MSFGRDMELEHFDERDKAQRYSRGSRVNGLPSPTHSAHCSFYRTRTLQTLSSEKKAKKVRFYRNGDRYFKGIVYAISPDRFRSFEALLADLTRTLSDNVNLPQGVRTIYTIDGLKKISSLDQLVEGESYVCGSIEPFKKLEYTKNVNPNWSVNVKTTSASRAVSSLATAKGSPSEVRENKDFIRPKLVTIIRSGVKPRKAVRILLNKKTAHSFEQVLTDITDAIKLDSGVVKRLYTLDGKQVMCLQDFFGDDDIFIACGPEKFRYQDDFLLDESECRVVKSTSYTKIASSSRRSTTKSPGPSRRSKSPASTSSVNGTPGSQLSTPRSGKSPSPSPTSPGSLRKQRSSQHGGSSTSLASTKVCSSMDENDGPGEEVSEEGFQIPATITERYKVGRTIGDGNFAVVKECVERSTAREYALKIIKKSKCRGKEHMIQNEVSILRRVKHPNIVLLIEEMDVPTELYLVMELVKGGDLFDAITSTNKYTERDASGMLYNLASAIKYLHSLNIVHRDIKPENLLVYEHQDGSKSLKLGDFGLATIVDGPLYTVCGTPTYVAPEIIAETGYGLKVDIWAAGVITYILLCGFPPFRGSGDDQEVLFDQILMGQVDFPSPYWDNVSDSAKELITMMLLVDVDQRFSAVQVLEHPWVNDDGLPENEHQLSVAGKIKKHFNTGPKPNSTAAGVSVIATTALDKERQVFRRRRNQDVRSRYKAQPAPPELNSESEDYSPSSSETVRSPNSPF

GRK1 = target: T3, GRK1 (Homo sapiens, UniProt Q15835)
T3 sequence (Q15835 1-563): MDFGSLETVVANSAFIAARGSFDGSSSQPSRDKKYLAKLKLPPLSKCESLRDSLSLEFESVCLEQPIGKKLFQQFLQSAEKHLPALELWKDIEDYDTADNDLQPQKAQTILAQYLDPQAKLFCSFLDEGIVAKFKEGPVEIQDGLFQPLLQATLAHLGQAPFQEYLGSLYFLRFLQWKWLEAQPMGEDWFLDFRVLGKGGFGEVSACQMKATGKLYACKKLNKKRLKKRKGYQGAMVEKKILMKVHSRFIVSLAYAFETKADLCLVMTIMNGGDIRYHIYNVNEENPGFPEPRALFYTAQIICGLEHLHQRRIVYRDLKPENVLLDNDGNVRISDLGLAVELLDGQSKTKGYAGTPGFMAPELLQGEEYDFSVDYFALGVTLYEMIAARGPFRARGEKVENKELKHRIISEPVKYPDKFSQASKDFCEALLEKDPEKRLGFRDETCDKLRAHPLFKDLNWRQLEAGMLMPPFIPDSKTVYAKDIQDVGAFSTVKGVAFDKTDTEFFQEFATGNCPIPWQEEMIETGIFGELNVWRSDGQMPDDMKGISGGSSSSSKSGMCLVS

KIT(D816V) = KIT(D816V) (Homo sapiens, UniProt P10721, D816V)
Chain of KIT(D816V) (P10721 whole entry D816V): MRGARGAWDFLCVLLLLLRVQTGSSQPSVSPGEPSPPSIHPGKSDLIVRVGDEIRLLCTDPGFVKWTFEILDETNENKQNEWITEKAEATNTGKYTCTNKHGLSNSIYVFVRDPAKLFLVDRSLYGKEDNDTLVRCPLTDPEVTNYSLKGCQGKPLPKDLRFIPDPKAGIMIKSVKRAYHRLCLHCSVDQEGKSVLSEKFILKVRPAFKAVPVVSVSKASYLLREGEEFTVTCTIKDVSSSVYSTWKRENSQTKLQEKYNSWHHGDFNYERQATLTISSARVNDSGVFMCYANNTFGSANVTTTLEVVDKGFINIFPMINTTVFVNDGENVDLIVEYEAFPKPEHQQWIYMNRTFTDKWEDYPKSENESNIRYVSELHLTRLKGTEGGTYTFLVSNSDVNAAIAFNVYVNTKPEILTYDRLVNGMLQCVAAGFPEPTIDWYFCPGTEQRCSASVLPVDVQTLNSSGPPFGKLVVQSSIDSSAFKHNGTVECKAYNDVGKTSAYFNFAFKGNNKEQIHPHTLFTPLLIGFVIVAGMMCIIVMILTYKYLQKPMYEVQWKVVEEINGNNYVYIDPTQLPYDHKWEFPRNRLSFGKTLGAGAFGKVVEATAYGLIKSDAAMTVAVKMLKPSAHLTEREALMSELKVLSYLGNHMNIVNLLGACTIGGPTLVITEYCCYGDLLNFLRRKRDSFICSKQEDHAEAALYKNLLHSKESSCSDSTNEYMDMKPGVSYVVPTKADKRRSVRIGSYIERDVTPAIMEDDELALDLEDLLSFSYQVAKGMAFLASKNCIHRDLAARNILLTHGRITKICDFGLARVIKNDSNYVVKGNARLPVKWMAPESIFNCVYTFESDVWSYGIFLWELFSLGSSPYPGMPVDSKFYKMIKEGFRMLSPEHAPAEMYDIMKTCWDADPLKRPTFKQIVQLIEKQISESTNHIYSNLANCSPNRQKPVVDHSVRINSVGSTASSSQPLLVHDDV

KIT(L576P) = KIT(L576P) (Homo sapiens, UniProt P10721, L576P)
Chain of KIT(L576P) (P10721 whole entry L576P): as the sequence (P10721 whole entry D816V) above, with L576P, V816D counted along it

MEK1 = target: T4, MEK1 (Homo sapiens, UniProt Q02750)
T4 construct: gene MAP2K1
T4 sequence (Q02750 whole entry): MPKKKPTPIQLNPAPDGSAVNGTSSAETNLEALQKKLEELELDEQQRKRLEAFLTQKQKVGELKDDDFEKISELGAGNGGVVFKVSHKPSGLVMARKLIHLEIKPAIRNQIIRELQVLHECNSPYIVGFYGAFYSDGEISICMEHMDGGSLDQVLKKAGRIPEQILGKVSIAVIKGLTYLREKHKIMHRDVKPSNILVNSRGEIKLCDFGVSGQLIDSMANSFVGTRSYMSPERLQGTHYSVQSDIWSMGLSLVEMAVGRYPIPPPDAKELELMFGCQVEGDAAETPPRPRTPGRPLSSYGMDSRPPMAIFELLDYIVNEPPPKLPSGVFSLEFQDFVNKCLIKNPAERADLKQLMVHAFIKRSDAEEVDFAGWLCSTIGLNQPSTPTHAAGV

PKAC-beta = target: T5, PKAC-beta (Homo sapiens, UniProt P22694)
T5 construct: gene PRKACB

[1] = read-out: Niraparib (MK-4827) / %Ctrl @ 10000nM
[2] = read-out: Olaparib / %Ctrl @ 10000nM
[3] = read-out: Rucaparib / %Ctrl @ 10000nM, binding competition, % of control
[4] = read-out: Talazoparib (BMN 673) / %Ctrl @ 10000nM

SMILES: NC(=O)c1cccc2cn(-c3ccc([C@@H]4CCCNC4)cc3)nc12 [Niraparib]
percent of control binding at 10 µM (AURKB; [1]): 8.1% | percent of control binding at 10 µM (BIKE; [1]): 81% | percent of control binding at 10 µM (DCAMKL1; [1]): 89% | percent of control binding at 10 µM (GRK1; [1]): 95% | percent of control binding at 10 µM (KIT(D816V); [1]): 89% | percent of control binding at 10 µM (KIT(L576P); [1]): 80% | percent of control binding at 10 µM (MEK1; [1]): 79% | percent of control binding at 10 µM (PKAC-beta; [1]): 96%

percent of control binding at 10 µM (AURKB; [2]): 100% | percent of control binding at 10 µM (BIKE; [2]): 100% | percent of control binding at 10 µM (DCAMKL1; [2]): 100% | percent of control binding at 10 µM (GRK1; [2]): 91% | percent of control binding at 10 µM (KIT(D816V); [2]): 100% | percent of control binding at 10 µM (KIT(L576P); [2]): 100% | percent of control binding at 10 µM (MEK1; [2]): 79% | percent of control binding at 10 µM (PKAC-beta; [2]): 100%
SMILES: O=C(c1cc(Cc2n[nH]c(=O)c3ccccc23)ccc1F)N1CCN(C(=O)C2CC2)CC1 [Olaparib]

percent of control binding at 10 µM (AURKB; [3]): 100% | percent of control binding at 10 µM (BIKE; [3]): 72% | percent of control binding at 10 µM (DCAMKL1; [3]): 78% | percent of control binding at 10 µM (GRK1; [3]): 64% | percent of control binding at 10 µM (KIT(D816V); [3]): 96% | percent of control binding at 10 µM (KIT(L576P); [3]): 88% | percent of control binding at 10 µM (MEK1; [3]): 69% | percent of control binding at 10 µM (PKAC-beta; [3]): 99%
SMILES: CNCc1ccc(-c2[nH]c3cc(F)cc4c3c2CCNC4=O)cc1 [Rucaparib]

percent of control binding at 10 µM (AURKB; [4]): 73% | percent of control binding at 10 µM (BIKE; [4]): 93% | percent of control binding at 10 µM (DCAMKL1; [4]): 90% | percent of control binding at 10 µM (GRK1; [4]): 100% | percent of control binding at 10 µM (KIT(D816V); [4]): 94% | percent of control binding at 10 µM (KIT(L576P); [4]): 100% | percent of control binding at 10 µM (MEK1; [4]): 67% | percent of control binding at 10 µM (PKAC-beta; [4]): 56%
SMILES: Cn1ncnc1[C@H]1c2n[nH]c(=O)c3cc(F)cc(c23)N[C@@H]1c1ccc(F)cc1 [Talazoparib]
